Experimental data from US8993542B2, “Methods of treating viral infections” (priority 2008, dated 2015).

Legend:
HIV-2 Isolates = assay: Activity against HIV-2 isolates in PBMCs, RT endpoint; format: cell-based; conditions: for IC50: Human immunodeficiency virus 2, PBMC
HIV-1IIIB = assay: Resistance selection by serial passage in CEM-SS cells; format: cell-based
Procedure: In vitro studies designed to select CMX157 resistant mutants use wild-type HIV-1 as the primary inoculum and TFV as a positive control. These studies are conducted by serial passage of HIV-1IIIB and HIV-1RF in CEM-SS cells using increasing concentrations of TFV or CMX157. Drug levels are increased following detection of viral growth at each passage using procedures known to one skilled in the art. Upon completion of each passage, the reverse transcriptase coding region of the viral genome is sequenced to identify any possible resistance-associated mutations that may have emerged within the virus pool.

[1] = Passage 1, Tenofovir 10 μM (2× IC50)
[2] = Passage 2, Tenofovir 20 μM (4× IC50)
[3] = Passage 3, Tenofovir 30 μM (6× IC50)
[4] = Passage 4, Tenofovir 40 μM (8× IC50)
[5] = Passage 5, Tenofovir 40 μM (8× IC50)
[6] = Passage 6, Tenofovir 40 μM (8× IC50)
[7] = Passage 7, Tenofovir 45 μM (9× IC50)
[8] = Passage 8, Tenofovir 50 μM (10× IC50)
[9] = Passage 9, Tenofovir 55 μM (11× IC50)
[10] = Passage 10, Tenofovir 60 μM (12× IC50)

With `CCCCCCCCCCCCCCCCOCCCOP(=O)(O)CO[C@H](C)Cn1cnc2c(N)ncnc21` [CMX157, Hexadecyloxypropyl-9-R-[2-(Phosphonomethoxy)Propyl]-Adenine] as the compound, how does the “TI (TC50/IC50)” value (HIV-2 Isolates; HIV-2 isolate CBL-20) read?
Its value is greater than 223.

What about the “TI (TC50/IC50)” value (HIV-2 Isolates; HIV-2 isolate CDC310319) of the same compound?
Its value is greater than 564.

And the “TI (TC50/IC50)” value (HIV-2 Isolates; HIV-2 isolate CDC310342)?
The value was greater than 232.

And the IC50 (HIV-2 Isolates; HIV-2 isolate CBL-20)?
The IC50 was 4.48 nM.

What about the IC50 (HIV-2 Isolates; HIV-2 isolate CDC310319) of the same compound?
Its IC50 is 1.77 nM.

What about the IC50 (HIV-2 Isolates; HIV-2 isolate CDC310342) of the same compound?
The IC50 was 4.31 nM.

What does the source list for `C[C@H](Cn1cnc2c(N)ncnc21)OCP(=O)(O)O` [TFV, (R)-9-(2-phosphonylmethoxypropyl)adenine]?
passage by which K65R was selected (HIV-1IIIB): ≤ 8 passage; Comments (virus replication) (HIV-1IIIB; [1]): Low-level virus replication observed; Day of Peak Virus Production (HIV-1IIIB; [1]): Day 6; Peak RT activity (HIV-1IIIB; [1]): (3,525 cpm); Comments (virus replication) (HIV-1IIIB; [2]): Low-level virus replication observed; Day of Peak Virus Production (HIV-1IIIB; [2]): Day 7; Peak RT activity (HIV-1IIIB; [2]): (2,016 cpm); Comments (virus replication) (HIV-1IIIB; [3]): Low-level virus replication observed; Day of Peak Virus Production (HIV-1IIIB; [3]): Day 14; Peak RT activity (HIV-1IIIB; [3]): (2,062 cpm); Comments (virus replication) (HIV-1IIIB; [4]): Low-level virus replication observed; Day of Peak Virus Production (HIV-1IIIB; [4]): Day 6; Peak RT activity (HIV-1IIIB; [4]): (3,109 cpm); Comments (virus replication) (HIV-1IIIB; [5]): Low-level virus replication observed;; Day of Peak Virus Production (HIV-1IIIB; [5]): Day 14; Peak RT activity (HIV-1IIIB; [5]): (1,788 cpm); Comments (virus replication) (HIV-1IIIB; [6]): Robust virus replication observed;; Day of Peak Virus Production (HIV-1IIIB; [6]): Day 19; Peak RT activity (HIV-1IIIB; [6]): (23,508); Comments (virus replication) (HIV-1IIIB; [7]): Robust virus replication observed; minor; Day of Peak Virus Production (HIV-1IIIB; [7]): Day 7; Peak RT activity (HIV-1IIIB; [7]): (24,408 cpm); Comments (virus replication) (HIV-1IIIB; [8]): Robust virus replication observed; E404D; Day of Peak Virus Production (HIV-1IIIB; [8]): Day 9; Peak RT activity (HIV-1IIIB; [8]): (57,455 cpm); Comments (virus replication) (HIV-1IIIB; [9]): Robust virus replication observed;; Day of Peak Virus Production (HIV-1IIIB; [9]): Day 11; Peak RT activity (HIV-1IIIB; [9]): (25,458 cpm); Comments (virus replication) (HIV-1IIIB; [10]): Robust virus replication observed;; Day of Peak Virus Production (HIV-1IIIB; [10]): Day 7; Peak RT activity (HIV-1IIIB; [10]): (31,549 cpm)
